Tests used:
[1] = system: patient-derived cisplatin-resistant mesenchymal NSCLC cells; settings: WO/2014/006020; cited from earlier work
[2] = system: A549 cells expressing GPBP-EYFP; experiment: GPBP-induced phenotype transition, Western blot of markers; assay type: cell-based, Human; settings: T12 10 μM, 24 h; FIG. 4
Procedure: FIG. 4. T12 inhibits GPBP-induced phenotype transition in A549 cultures. A549 cells expressing either GPBP-EYFP fusion protein or EYFP were cultured during 24 h in the presence (+) or absence (−) of T12 (10 μM.) Then cells were lysed and similar amounts of lysates were analyzed by Western blot with antibodies against the indicated proteins. Loading equivalence was confirmed by tubulin expression analysis in each of the individual experiments (not shown). To generate cells expressing GPBP fused to Enhanced Yellow Fluorescent Protein (GPBP-EYFP) or EYFP, A549 cells were transfected either with pEYFP-N1-GPBP construct or with pEYFP-N1 vector (Clontech), expressing GPBP-EYFP and EYFP, respectively. Transfected cells were selected with 400 mg/L of geniticin and clones were isolated with a High SPEED CELL SORTER MOFLO® (Beckman-Coulter) and further cultured. Recombinant protein expression was assessed by immunofluorescence microscopy and by Western blot with anti-GPBP N27 mouse monoclonal antibodies. For Western blot analysis, cells were lysed in TBS supplemented with 1% Triton X-100, 0.1% SDS, 1 mM PMSF, 10 μg/mL leupeptine and 20 mM NaF during 30 min at 4° C. Lysates were centrifuged (16,000×g, 5 min, 4° C.) and supernatants were collected and protein concentration determined (Bio-Rad Protein Assay). Samples were subjected to reducing SDS-PAGE and electro-transference onto PVDF membrane. […]

Structure (SMILES): COc1ccc(-c2ccc(-c3cccc(C)c3)c(C)c2)c(CCC(=O)O)c1 [T12, 3-[4″-methoxy-3,2′-dimethyl-(1,1′;4′,1″)terphenyl-2″-yl] propionic acid]
- toxicity [1]: high-toxicity
- effect on GPBP-EYFP-induced changes of vimentin, phospho p70-S6 kinase and E-cadherin [2]: counteracted all these regulatory effects

From patent US20160184274A1, “Methods for inhibiting mesenchymal phenotype after epithelial-to-mesenchymal transition” (Fibrostatin, S.L., priority 2014, published 2016)
